Results reported in patent publication US8563730B2, “Pyrazole and fused pyrazole glucokinase activators” (Takeda San Diego, Inc., priority 2008, dated 2013).
pEC50: −log10 of the molar value.

Molecular target: T1, GK (glucokinase, residues 12-465) (Homo sapiens, UniProt P35557)
T1 construct: I.D. No. 1 corresponds to residues 12-465 of glucokinase; made in house; host or cells: DH10b-T1r E. coli
T1 sequence (P35557 with tags, fused parts or gaps isoform P35557-2): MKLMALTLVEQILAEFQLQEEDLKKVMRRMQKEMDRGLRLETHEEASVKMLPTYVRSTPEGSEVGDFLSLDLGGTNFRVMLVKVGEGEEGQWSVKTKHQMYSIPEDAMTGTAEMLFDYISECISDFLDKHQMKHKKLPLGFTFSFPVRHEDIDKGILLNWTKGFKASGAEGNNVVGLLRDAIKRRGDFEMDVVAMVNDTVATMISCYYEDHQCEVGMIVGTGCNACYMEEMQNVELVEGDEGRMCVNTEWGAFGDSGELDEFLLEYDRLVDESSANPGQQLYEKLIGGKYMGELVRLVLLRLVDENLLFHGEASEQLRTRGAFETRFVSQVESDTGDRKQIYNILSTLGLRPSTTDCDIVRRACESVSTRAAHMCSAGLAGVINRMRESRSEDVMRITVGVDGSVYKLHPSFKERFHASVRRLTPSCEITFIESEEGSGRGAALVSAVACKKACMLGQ
Assay: enzymatic glucokinase activity assay (ATP consumption, KinaseGlo luminescence)
Format: biochemical
Conditions: 5 μM ATP, 5 mM Glucose, reported as bins; for pEC50: Kact = concentration that displays 50% of the maximal increase in GK activity, 60 min, room temperature, read-out: pKact; for Emax: calculated maximal gain in GK enzyme activity at a saturating concentration of the compound, read-out: % ACTmax
Outline: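 E. coli-expressed recombinant GK purified by two anion-exchange steps. Reaction in 25 mM Hepes pH 7.2, 10 mM MgCl2, 1 mM DTT, 5 μM ATP, 5 mM glucose, 2% DMSO, 60 min at room temperature. ATP consumption quantified by KinaseGlo luminescence; pKact and % ACTmax derived by non-linear curve fitting.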

Structure (SMILES) | pEC50 | Emax [%]
O=C(Nc1ncc(F)s1)C(CC1CCOCC1)n1ncc2c(S(=O)(=O)C3CC3)cc(OC(F)F)cc21 (stereo not shown) [Compound 143, 2-(4-(cyclopropylsulfonyl)-6-(difluoromethoxy)-1H-indazol-1-yl)-N-(5-fluorothiazol-2-yl)-3-(tetrahydro-2H-pyran-4-yl)propanamide] | ≥ 6.50 | ≤ 90
O=C(Nc1ncc(F)s1)C(CC1CCOCC1)n1ncc2c(S(=O)(=O)C3CC3)c(O)ccc21 (stereo not shown) [Compound 144, 2-(4-(cyclopropylsulfonyl)-5-hydroxy-1H-indazol-1-yl)-N-(5-fluorothiazol-2-yl)-3-(tetrahydro-2H-pyran-4-yl)propanamide] | ≥ 6.50 | 106 to 110
CS(=O)(=O)n1ccc(NC(=O)C(CC2CCOCC2)n2ncc3c(S(=O)(=O)C4CC4)cccc32)n1 (stereo not shown) [Compound 146, 2-(4-(cyclopropylsulfonyl)-1H-indazol-1-yl)-N-(1-(methylsulfonyl)-1H-pyrazol-3-yl)-3-(tetrahydro-2H-pyran-4-yl)propanamide] | 4.90 to 5.40 | ≤ 90
O=C(Nc1ncc(F)s1)C(CC1CCOCC1)n1cc2c(S(=O)(=O)C3CC3)c(F)ccc2n1 (stereo not shown) [Compound 148, 2-(4-(cyclopropylsulfonyl)-5-fluoro-2H-indazol-2-yl)-N-(5-fluorothiazol-2-yl)-3-(tetrahydro-2H-pyran-4-yl)propanamide] | 4.90 to 5.40 | ≤ 90
O=C(Nc1ncc(F)s1)C(CC1CCOCC1)n1ncc2c(S(=O)(=O)C3CC3)c(F)ccc21 (stereo not shown) [Compound 149, 2-(4-(cyclopropylsulfonyl)-5-fluoro-1H-indazol-1-yl)-N-(5-fluorothiazol-2-yl)-3-(tetrahydro-2H-pyran-4-yl)propanamide] | ≥ 6.50 | ≥ 111
O=C(Nc1ncc(F)s1)C(CC1CCOCC1)n1ncc2c(S(=O)(=O)C3CC3)c(Br)ccc21 (stereo not shown) [Compound 150, 2-(5-bromo-4-(cyclopropylsulfonyl)-1H-indazol-1-yl)-N-(5-fluorothiazol-2-yl)-3-(tetrahydro-2H-pyran-4-yl)propanamide] | 5.90 to 6.40 | ≥ 111
Cn1ccc(NC(=O)C(CC2CCOCC2)n2ncc3c(S(=O)(=O)C4CC4)c(F)ccc32)n1 (stereo not shown) [Compound 152, 2-(4-(cyclopropylsulfonyl)-5-fluoro-1H-indazol-1-yl)-N-(1-methyl-1H-pyrazol-3-yl)-3-(tetrahydro-2H-pyran-4-yl)propanamide] | ≥ 6.50 | 106 to 110
Cn1ccc(NC(=O)C(CC2CCOCC2)n2cc3c(S(=O)(=O)C4CC4)c(F)ccc3n2)n1 (stereo not shown) [Compound 153, 2-(4-(cyclopropylsulfonyl)-5-fluoro-2H-indazol-2-yl)-N-(1-methyl-1H-pyrazol-3-yl)-3-(tetrahydro-2H-pyran-4-yl)propanamide] | ≤ 4.80 | 106 to 110
CCn1ccc(NC(=O)C(CC2CCOCC2)n2ncc3c(S(=O)(=O)C4CC4)c(F)ccc32)n1 (stereo not shown) [Compound 155, 2-(4-(cyclopropylsulfonyl)-5-fluoro-1H-indazol-1-yl)-N-(1-ethyl-1H-pyrazol-3-yl)-3-(tetrahydro-2H-pyran-4-yl)propanamide] | ≥ 6.50 | 106 to 110
Cc1ccc2c(cnn2C(CC2CCOCC2)C(=O)Nc2ccn(C)n2)c1S(=O)(=O)C1CC1 (stereo not shown) [Compound 158, 2-(4-(cyclopropylsulfonyl)-5-methyl-1H-indazol-1-yl)-N-(1-methyl-1H-pyrazol-3-yl)-3-(tetrahydro-2H-pyran-4-yl)propanamide] | 5.90 to 6.40 | ≥ 111
Cn1ccc(NC(=O)[C@H](CC2CCOCC2)n2ncc3c(S(=O)(=O)C4CC4)c(F)ccc32)n1 [Compound 165, (S)-2-(4-(cyclopropylsulfonyl)-5-fluoro-1H-indazol-1-yl)-N-(1-methyl-1H-pyrazol-3-yl)-3-(tetrahydro-2H-pyran-4-yl)propanamide] | ≥ 6.50 | 90 to 100
Cn1ccc(NC(=O)C(CC2CCOCC2)n2cc3c(S(=O)(=O)C4CC4)cc(Cl)cc3n2)n1 (stereo not shown) [Compound 167, 2-(6-chloro-4-(cyclopropylsulfonyl)-2H-indazol-2-yl)-N-(1-methyl-1H-pyrazol-3-yl)-3-(tetrahydro-2H-pyran-4-yl)propanamide] | 4.90 to 5.40 | ≤ 90

The remaining lines, values ahead:

pEC50 | Emax [%] | Structure (SMILES)
≥ 6.50 | 101 to 105 | Nc1cc(S(=O)(=O)C2CC2)c2cnn(C(CC3CCOCC3)C(=O)Nc3ncc(F)s3)c2c1 (stereo not shown) [Compound 142, 2-(6-amino-4-(cyclopropylsulfonyl)-1H-indazol-1-yl)-N-(5-fluorothiazol-2-yl)-3-(tetrahydro-2H-pyran-4-yl)propanamide]
4.90 to 5.40 | ≤ 90 | O=C(Nc1ncc(F)s1)[C@@H](CC1CCOCC1)n1ncc2c(S(=O)(=O)C3CC3)cc(Cl)cc21 [Compound 145, (R)-2-(6-chloro-4-(cyclopropylsulfonyl)-1H-indazol-1-yl)-N-(5-fluorothiazol-2-yl)-3-(tetrahydro-2H-pyran-4-yl)propanamide]
5.50 to 5.80 | ≥ 111 | O=C(Nc1cccc(F)n1)C(CC1CCOCC1)n1ncc2c(S(=O)(=O)C3CC3)cccc21 (stereo not shown) [Compound 147, 2-(4-(cyclopropylsulfonyl)-1H-indazol-1-yl)-N-(6-fluoropyridin-2-yl)-3-(tetrahydro-2H-pyran-4-yl)propanamide]
5.50 to 5.80 | 90 to 100 | Cn1ccc(NC(=O)C(CC2CCOCC2)n2ncc3c(S(=O)(=O)C4CC4)cncc32)n1 (stereo not shown) [Compound 151, 2-(4-(cyclopropylsulfonyl)-1H-pyrazolo[3,4-c]pyridin-1-yl)-N-(1-methyl-1H-pyrazol-3-yl)-3-(tetrahydro-2H-pyran-4-yl)propanamide]
≥ 6.50 | 106 to 110 | O=C(Nc1cnccn1)C(CC1CCOCC1)n1ncc2c(S(=O)(=O)C3CC3)c(F)ccc21 (stereo not shown) [Compound 154, 2-(4-(cyclopropylsulfonyl)-5-fluoro-1H-indazol-1-yl)-N-(pyrazin-2-yl)-3-(tetrahydro-2H-pyran-4-yl)propanamide]
≥ 6.50 | 101 to 105 | O=C(Nc1cnccn1)C(CC1CCOCC1)n1cc2c(S(=O)(=O)C3CC3)c(F)ccc2n1 (stereo not shown) [Compound 156, 2-(4-(cyclopropylsulfonyl)-5-fluoro-2H-indazol-2-yl)-N-(pyrazin-2-yl)-3-(tetrahydro-2H-pyran-4-yl)proanamide]
5.90 to 6.40 | ≥ 111 | Cc1ccc2c(cnn2C(CC2CCOCC2)C(=O)Nc2cnccn2)c1S(=O)(=O)C1CC1 (stereo not shown) [Compound 157, 2-(4-(cyclopropylsulfonyl)-5-methyl-1H-indazol-1-yl)-N-(pyrazin-2-yl)-3-(tetrahydro-2H-pyran-4-yl)propanamide]
5.50 to 5.80 | 101 to 105 | Cn1ccc(NC(=O)[C@H](CC2CCOCC2)n2ncc3c(S(=O)(=O)C4CC4)cncc32)n1 [Compound 159, (S)-2-(4-(cyclopropylsulfonyl)-1H-pyrazolo[3,4-c]pyridin-1-yl)-N-(1-methyl-1H-pyrazol-3-yl)-3-(tetrahydro-2H-pyran-4-yl)propanamide]
4.90 to 5.40 | 90 to 100 | Cn1ccc(NC(=O)[C@@H](CC2CCOCC2)n2ncc3c(S(=O)(=O)C4CC4)cncc32)n1 [Compound 160, (R)-2-(4-(cyclopropylsulfonyl)-1H-pyrazolo[3,4-c]pyridin-1-yl)-N-(1-methyl-1H-pyrazol-3-yl)-3-(tetrahydro-2H-pyran-4-yl)propanamide]
≤ 4.80 | ≤ 90 | O=C(Nc1cnccn1)[C@@H](CC1CCOCC1)n1ncc2c(S(=O)(=O)C3CC3)ccnc21 [Compound 161, (R)-2-(4-(cyclopropylsulfonyl)-1H-pyrazolo[3,4-b]pyridin-1-yl)-N-(pyrazin-2-yl)-3-(tetrahydro-2H-pyran-4-yl)propanamide]
5.50 to 5.80 | 106 to 110 | O=C(Nc1cnccn1)[C@H](CC1CCOCC1)n1ncc2c(S(=O)(=O)C3CC3)ccnc21 [Compound 162, (S)-2-(4-(cyclopropylsulfonyl)-1H-pyrazolo[3,4-b]pyridin-1-yl)-N-(pyrazin-2-yl)-3-(tetrahydro-2H-pyran-4-yl)propanamide]
5.50 to 5.80 | ≤ 90 | Nc1cc(S(=O)(=O)C2CC2)c2cnn([C@H](CC3CCOCC3)C(=O)Nc3cnccn3)c2n1 [Compound 163, (R)-2-(6-amino-4-(cyclopropylsulfonyl)-1H-pyrazolo[3,4-b]pyridin-1-yl)-N-(pyrazin-2-yl)-3-(tetrahydro-2H-pyran-4-yl)propanamide]
5.90 to 6.40 | 106 to 110 | Nc1cc(S(=O)(=O)C2CC2)c2cnn([C@@H](CC3CCOCC3)C(=O)Nc3cnccn3)c2n1 [Compound 164, (S)-2-(6-amino-4-(cyclopropylsulfonyl)-1H-pyrazolo[3,4-b]pyridin-1-yl)-N-(pyrazin-2-yl)-3-(tetrahydro-2H-pyran-4-yl)propanamide]
4.90 to 5.40 | 90 to 100 | Cn1ccc(NC(=O)[C@@H](CC2CCOCC2)n2ncc3c(S(=O)(=O)C4CC4)c(F)ccc32)n1 [Compound 166, (R)-2-(4-(cyclopropylsulfonyl)-5-fluoro-1H-indazol-1-yl)-N-(1-methyl-1H-pyrazol-3-yl)-3-(tetrahydro-2H-pyran-4-yl)propanamide]
